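Step 1: Grow cells in 96-well plates. Step 2: Expose to compound for 48 hours at 5 concentrations. Step 3: Interpolate endpoints linearly; if unreached, use highest concentration. At the TGI there is no net growth.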
Columns and labels:
Test in all cases: inhibition of tumour cell growth, NCI panel, 48 h
ACHN renal = tested on: ACHN renal
BT-549 breast = tested on: BT-549 breast
COLO 205 colon = tested on: COLO 205 colon
HCT-116 colon = tested on: HCT-116 colon
HCT-15 colon = tested on: HCT-15 colon
HOP-62 NSCLC = tested on: HOP-62 NSCLC
M14 melanoma = tested on: M14 melanoma
MDA-MB-435 = tested on: MDA-MB-435
MDA-N = tested on: MDA-N
MOLT-4 leukemia = tested on: MOLT-4 leukemia
OVCAR-4 ovarian = tested on: OVCAR-4 ovarian
SF-295 CNS = tested on: SF-295 CNS
SNB-75 CNS = tested on: SNB-75 CNS
T-47D breast = tested on: T-47D breast
UO-31 renal = tested on: UO-31 renal
CCRF-CEM leukemia = tested on: CCRF-CEM leukemia
HT29 colon = tested on: HT29 colon
IGROV1 ovarian = tested on: IGROV1 ovarian
RXF 393 renal = tested on: RXF 393 renal
SW-620 colon = tested on: SW-620 colon

Row | SMILES | TGI (ACHN renal) [µM] | TGI (BT-549 breast) [µM] | TGI (COLO 205 colon) [µM] | TGI (HCT-116 colon) [µM] | TGI (HCT-15 colon) [µM] | TGI (HOP-62 NSCLC) [µM] | TGI (M14 melanoma) [µM] | TGI (MDA-MB-435) [µM] | TGI (MDA-N) [µM] | TGI (MOLT-4 leukemia) [µM] | TGI (OVCAR-4 ovarian) [µM] | TGI (SF-295 CNS) [µM] | TGI (SNB-75 CNS) [µM] | TGI (T-47D breast) [µM] | TGI (UO-31 renal) [µM] | TGI (CCRF-CEM leukemia) [µM] | TGI (HT29 colon) [µM] | TGI (IGROV1 ovarian) [µM] | TGI (RXF 393 renal) [µM] | TGI (SW-620 colon) [µM]
1 | C=CCOC(=O)C1=C(CCC[C@@H](C)O[Si](C)(C)C(C)(C)C)N=C(N)N2[C@H](CCO)CC[C@@H]12 | 40.1 | 36.5 | 22.9 | 28.6 | 32.5 | 27.4 | 27.6 | 27.8 | 32.9 | 24.9 | 23.2 | 25.2 | 32.5 | 28.9 | 29.6 | – | – | – | – | –
2 | COC(=O)CCC(C)C1CCC2C3C(C[C@H](OC(C)=O)[C@]12C)[C@@]1(C)CCC2(C[C@H]1C[C@H]3OC(C)=O)OOC1(CC[C@]3(C)C4C[C@H](OC(C)=O)[C@]5(C)C(C(C)CCC(=O)OC)CCC5C4[C@H](OC(C)=O)C[C@@H]3C1)OO2 (stereo partly drawn) | > 100 | > 100 | > 100 | > 100 | > 100 | > 100 | > 100 | > 100 | > 100 | > 100 | > 100 | > 100 | > 100 | – | > 100 | > 100 | > 100 | > 100 | > 100 | > 100
3 | CC(C)(C)c1cc2c(O)c(c1)Cc1cc(C(C)(C)C)cc(c1O)Cc1cc(C(C)(C)C)cc(c1O)Cc1cc(C(C)(C)C)cc(c1O)Cc1cc(C(C)(C)C)cc(c1O)Cc1cc(C(C)(C)C)cc(c1O)Cc1cc(C(C)(C)C)cc(c1O)Cc1cc(C(C)(C)C)cc(c1O)C2 | > 50 | – | > 50 | > 50 | > 50 | > 50 | > 50 | > 50 | > 50 | > 50 | > 50 | > 50 | > 50 | > 50 | > 50 | > 50 | > 50 | > 50 | > 50 | > 50
4 | C1CC[C@H]2SSC3CCCC[C@H]3SSC2C1 (stereo partly drawn) | – | > 100 | > 100 | > 100 | > 100 | > 100 | > 100 | > 100 | > 100 | > 100 | > 100 | > 100 | > 100 | > 100 | > 100 | > 100 | > 100 | > 100 | – | > 100
5 | COc1cc2c(cc1OC)C(=O)/C(=C/c1cc(OC)c(OC)c(OC)c1)C2 | – | > 100 | > 100 | – | > 100 | > 100 | > 100 | > 100 | > 100 | > 100 | > 100 | > 100 | > 100 | > 100 | > 100 | > 100 | > 100 | > 100 | > 100 | –
6 | O=c1c2cc(Cl)cc(Cl)c2oc2nc3n(c(=O)c12)CCCS3 | > 100 | > 100 | > 100 | > 100 | > 100 | > 100 | > 100 | > 100 | > 100 | > 100 | > 100 | > 100 | > 100 | > 100 | 40.4 | > 100 | – | > 100 | > 100 | > 100
7 | Cc1nnc(N)nc1/C=C/c1c(O)ccc2ccccc12 | 43.7 | > 100 | > 100 | > 100 | 44 | > 100 | 44.1 | 79.5 | > 100 | > 100 | 61.1 | 56.9 | – | > 100 | 84.6 | > 100 | 87.7 | 32.2 | 36.2 | > 100
8 | C/C(=N\Nc1nc2cccnc2s1)c1ccccn1 | 1.07 | 15.9 | > 100 | > 32.2 | 21.5 | – | – | > 100 | > 100 | – | 29.5 | 3.48 | 6.06 | – | 0.307 | > 100 | – | 1.3 | 19.9 | > 100
9 | O=C(c1ccc(Cl)cc1)N(C(=S)OCc1ccccn1)c1ccccc1 | > 100 | > 100 | > 100 | > 100 | > 100 | 75.7 | > 100 | > 100 | > 100 | > 100 | – | > 100 | – | 93.5 | > 100 | > 100 | > 100 | > 100 | 56.6 | > 100
10 | CC1CCC2(CC1)NC1=C(CC(C)CC1)C1=C2CC(C)CC1 (stereo not drawn) | 62.8 | 38.4 | 49.8 | 28 | 45.9 | – | 40.6 | – | > 100 | 53 | 94.2 | 36.9 | 59.7 | 78.6 | 51.7 | 43.6 | 46.5 | > 100 | 30.7 | 37.7
11 | COC(=O)C1(C(=O)OC)N=C(C)OC1/C=C/c1ccccc1 (stereo not drawn) | > 100 | > 100 | > 100 | > 100 | > 100 | > 100 | > 100 | > 100 | > 100 | > 100 | > 100 | > 100 | > 100 | > 100 | > 100 | > 100 | – | > 100 | > 100 | > 100
12 | O=c1cn[nH]c(=S)n1/N=C/c1c[nH]c2ccccc12 | > 100 | > 100 | > 100 | > 100 | > 100 | > 100 | > 100 | > 100 | > 100 | > 100 | > 100 | > 100 | – | – | > 100 | 30.3 | > 100 | 31.8 | – | > 100

Source: PubChem BioAssay (NCI)
